Measurements taken from the supplement of paper PMC10307832.

Columns and labels:
Test in all cases: relative viability (nuclei count vs DMSO), 5 days (fraction); higher = more cells survive
[1] = compound: C/C(=N\NC(=S)N1CCC1)/C2=CC=CC=N2 + Nc1ncn([C@H]2C[C@H](O)[C@@H](CO)O2)c(=O)n1 [Decitabine] (partner 2 µM)
Procedure, shortened: (§1)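 Lung cancer cell lines, seeded in 1536-well plates, were treated the following day by pin tool with a single drug or with five library-drug doses (not always all listed) in √10 steps on top of a fixed anchor-drug dose. Cells were fixed and nuclei stained in one step after 5 days, and nuclei were counted. Relative viability is the nuclei count for treated wells divided by that for vehicle wells, reported as medians of duplicate plates.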

[2] = compound: C/C(=N\NC(=S)N1CCC1)/C2=CC=CC=N2 + O=C(c1cc(Cc2n[nH]c(=O)c3ccccc23)ccc1F)N1CCN(C(=O)C2CC2)CC1 [Olaparib] (partner 8 µM)
Procedure, shortened: as §1

[3] = compound: C/C(=N\NC(=S)N1CCC1)/C2=CC=CC=N2 + CS(=O)(=O)CCNCc1ccc(-c2ccc3ncnc(Nc4ccc(OCc5cccc(F)c5)c(Cl)c4)c3c2)o1 [Lapatinib] (partner 2 µM)
Procedure, shortened: as §1

[4] = compound: C/C(=N\NC(=S)N1CCC1)/C2=CC=CC=N2 + NC(=O)Nc1cc(-c2cccc(F)c2)sc1C(=O)N[C@H]1CCCNC1 [AZD7762] (partner 0.2 µM)
Procedure, shortened: as §1

Cell Line | relative viability ([1]; first compound 0.05 µM) | relative viability ([1]; first compound 0.1581 µM) | relative viability ([1]; first compound 0.5 µM) | relative viability ([1]; first compound 1.581 µM) | relative viability ([1]; first compound 5 µM) | relative viability ([2]; first compound 0.05 µM) | relative viability ([2]; first compound 0.1581 µM) | relative viability ([2]; first compound 0.5 µM) | relative viability ([2]; first compound 1.581 µM) | relative viability ([2]; first compound 5 µM) | relative viability ([3]; first compound 0.05 µM) | relative viability ([3]; first compound 0.1581 µM) | relative viability ([3]; first compound 0.5 µM) | relative viability ([3]; first compound 1.581 µM) | relative viability ([3]; first compound 5 µM) | relative viability ([4]; first compound 0.05 µM) | relative viability ([4]; first compound 0.1581 µM) | relative viability ([4]; first compound 0.5 µM) | relative viability ([4]; first compound 1.581 µM) | relative viability ([4]; first compound 5 µM)
NCI-H1437 | 0.263 | 0.248 | 0.246 | 0.199 | 0.172 | 0.226 | 0.213 | 0.235 | 0.143 | 0.119 | 0.127 | 0.128 | 0.109 | 0.0868 | 0.0855 | 0.353 | 0.278 | 0.243 | 0.239 | 0.176
NCI-H1651 | 0.127 | 0.114 | 0.103 | 0.0618 | 0.0864 | 0.125 | 0.117 | 0.121 | 0.122 | 0.0747 | 0.117 | 0.119 | 0.131 | 0.0681 | 0.0861 | 0.0886 | 0.101 | 0.0929 | 0.0496 | 0.0554
NCI-H1666 | 0.367 | 0.368 | 0.411 | 0.329 | 0.375 | 0.601 | 0.547 | 0.479 | 0.461 | 0.523 | 0.229 | 0.27 | 0.273 | 0.198 | 0.228 | 0.304 | 0.398 | 0.352 | 0.3 | 0.331
NCI-H1734 | 0.136 | 0.152 | 0.132 | 0.123 | 0.102 | 0.148 | 0.13 | 0.15 | 0.114 | 0.1 | 0.162 | 0.141 | 0.15 | 0.115 | 0.12 | 0.124 | 0.128 | 0.139 | 0.0896 | 0.101
NCI-H1755 | 0.503 | 0.664 | 0.311 | 0.271 | 0.346 | 0.632 | 0.858 | 0.288 | 0.29 | 0.224 | 0.249 | 0.173 | 0.195 | 0.205 | 0.191 | 0.357 | 0.262 | 0.253 | 0.256 | 0.292
NCI-H1792 | 0.333 | 0.172 | 0.102 | 0.0665 | 0.0895 | 0.228 | 0.107 | 0.0578 | 0.134 | 0.101 | 0.371 | 0.38 | 0.179 | 0.193 | 0.104 | 0.107 | 0.0965 | 0.0559 | 0.0274 | 0.0333
NCI-H1793 | 0.276 | 0.193 | 0.218 | 0.138 | 0.166 | 0.255 | 0.143 | 0.169 | 0.123 | 0.107 | 0.192 | 0.169 | 0.165 | 0.146 | 0.197 | 0.129 | 0.199 | 0.104 | 0.116 | 0.142
NCI-H1915 | 0.115 | 0.123 | 0.144 | 0.124 | 0.148 | 0.155 | 0.12 | 0.127 | 0.122 | 0.137 | 0.195 | 0.182 | 0.157 | 0.136 | 0.133 | 0.16 | 0.114 | 0.134 | 0.119 | 0.122
